Assays:
hamster beta islet cells = assay: Hamster beta islet cell survival following cryopreservation (AlamarBlue assay); assay type: cell-based; conditions: PW conditioning 24 hours vs non-modulated samples; 10 mM NAC recovery media
Description: The studies described in example 8 focus on the collection of cell survival data and the impact of post-thaw conditioning on hamster beta islet cells. Specific activities included standard cryopreservation protocol and collection of data (survival and cell death) from samples frozen using 3 unique cryopreservation solutions (media with 0, 5% DMSO and 5% DMSO+NAC) and oxidative stress PW modulation (NAC). Survival was determined at 24 hours post-thaw to allow for the manifestation of any delayed onset cell death pathways to be executed. Further, cell recovery was included to evaluate the long term potency and repopulation potential of the various samples.
Cell samples were processed according to standard controlled rate suspension freeze protocols and analyzed following 24 hours to 3 days post thaw for survival and recovery. […] To this end, samples were probed with AlamarBlue, incubated for 60 mins in the dark and then assessed using a Tecan micro plate reader. […]
FIG. 33 illustrates the results of an assessment of beta islet cell survival following cryopreservation in media based solutions with various CPA concentrations. […] Following thawing, samples were placed into culture and assessed for viability at 1 day (24 hours) post-thaw using the AlamarBlue assay. […]

human endothelial cells = assay: Human endothelial cell monolayer survival and repopulation following cryopreservation (Calcein-AM assay); assay type: cell-based
Description: A series of cryopreservation experiments was conducted on human endothelial and smooth muscle cell suspensions and monolayers to assess the performance of four (4) commercially available cryopreservation solutions: DP6, VS55, VS83, and M22, as well as nine (9) additional solutions: […] Eurocollins (EC) solution was included as a negative control, i.e., no cryoprotective agent (CPA) control, while media+10% DMSO ([…]) is a typical solution (10% DMSO) used in standard controlled rate cryopreservation protocols known to the skilled individual. Unisol is representative of the class of intracellular-like or intracellular-type solutions/media, whereas EC solution and culture media are representative of the class of extracellular-like or extracellular-type solutions/media. Other studies presented herein provide additional examples of intracellular- and extracellular-like solutions; other intracellular- and extracellular-like solutions are similarly useful and are known to those of skill in the art. FIG. 1 illustrates the results of an assessment of human endothelial cell survival following preservation. Monolayers of endothelial cells were frozen or vitrified and thawed in the indicated solutions (control, Uni, […], DP6, VS55, VS83, and […]). Following thawing, samples were diluted in culture media, placed into culture and assessed for viability at 1 day (24 hours) post-thaw and following seven (7) days of recovery using the Calcein-AM assay. […] The Uni and U10 conditions provided outcomes exceeding that of the VS55, VS83 and […] conditions. Therefore, subsequent studies (see, e.g., FIG. 2) focused on Unisol-based solutions with various CPAs and concentrations, in addition to the DP6 commercial cryopreservation solution. […] Monolayers of endothelial cells were frozen or vitrified and thawed in the indicated solutions. […] For pre-freeze (PF), post-warming (PW) and pre/post (P/P) conditioning studies, molecular modulation agents targeting inhibition of apoptosis (Caspase inhibitor IV, 8, 9 and a combination of Caspases 8 and 9), reduction of free-radical damage (resveratrol and NAC), and activation of the unfolded protein response (salubrinal) were employed as supplements in the media 1 hour prior to freezing (pre-freeze condition) or for 1 day following thawing and CPA removal from frozen samples (post-warming condition). Based on outcomes in the studies in Example 1, PF, PW and P/P conditioning were examined in Examples 2-3 using a series of Unisol-based solutions (Uni, U5, U10, U20, UG10, U5G10 and U10G10). […] Patent Application Publication No. US 2016/0097583 A1 (Ser. No. 14/876,087), which is incorporated by reference in its entirety as though fully set forth herein. The freeze and thaw process was slightly modified relative to the disclosure of U.S. Patent Application Publication No. US 2016/0097583 A1 by the addition of a 0.090 inch aluminum plate inserted into the bottom of the 96 well plate to aid in increasing cooling and heating uniformity throughout the plate, thereby reducing the well-to-well variability within the samples. The device was used to thaw the samples, which were frozen in situ in monolayers in standard 96-well tissue culture plates. […] A mitochondrial-mediated apoptotic inhibitor (Caspase 9) and a membrane-mediated apoptotic inhibitor (Caspase 8) were investigated to evaluate the involvement and impact of modulation of various apoptotic induction pathways. Additionally, a pan-Caspase inhibitor (Cas IV) was also investigated to assess the impact of global pathway modulation. As with the viability studies, cell survival and repopulation were assessed using Calcein-AM assays and analyzed using fluorescent microscopy (Zeiss). Survival was determined at 24 hours post-thaw to allow for the manifestation of any delayed onset cell death pathways to be executed. Further, cell recovery was included to evaluate the long term potency and repopulation potential of the various samples. […]

In the case of `CC(=O)N[C@@H](CS)C(=O)O` [NAC, n-acetyl cysteine], the post-thaw survival (hamster beta islet cells) is reported as “improvement in post-thaw survival”, the survival (human endothelial cells; P/P conditioning with NAC, salubrinal or resveratrol, U10G10) is reported as about 60% and the post-thaw viability (human endothelial cells; P/P conditioning, U10 and U5G10 CP solutions vs matched non-treated samples) is reported as “increase in post-thaw viability”. For the same compound, the “day 1 survival increase over non-treated samples” value (human endothelial cells; P/P oxidative stress modulator conditioning, U10G10) was about 2.5 fold, the “day 1 survival increase over non-treated samples” value (human endothelial cells; PF conditioning 1 hour, U10G10) was about 2 fold and the “day 1 survival increase over non-treated samples” value (human endothelial cells; PW conditioning 24 hours, U10G10) was about 2 fold. The “post-thaw cell survival or recovery (overall)” value (human endothelial cells; PW conditioning in combination with various solutions) was “Broader solution benefit”, the “cell recovery / repopulation, 3 days” value (human endothelial cells; PW conditioning with oxidative stress modulators, vs non-treated) was “improved cell recovery” and the increase in survival (human endothelial cells; PW conditioning, U10 and U10G10 solutions, day 1) was about 50%.
